# Source: US12208122B2, “Methods of treating bleeding in a subject treated with an antiplatelet agent” (Cellphire, Inc., priority 2019, dated 2025)
# Where two headings read alike, the source gives them in different places. Where a SMILES comes first, the peptide text is derived from it. Bridges are numbered along the chain shown (N, C = ends). [ ]: non-standard residue; d: D form. hArg = N=C(N)NCCCC[C@H](N)C(=O)O; Mpa = O=C(O)CCS
# Assays:
# [1] = test system: platelets (platelet rich plasma); assay: Transmission light aggregometry, arachidonic acid-induced platelet aggregation in PRP; format: cell-based, human
# From the text: (§1) Platelets will aggregate with collagen and arachidonic acid stimulation. […] The PL chip system on the T-TAS® was used to emulate in vitro platelet binding and aggregation due to the exposure of collagen in the vasculature under shear conditions.
# Plasma samples with platelet or thrombosomes or combination of both are loaded into cuvettes and placed into the aggregometry chambers. The chambers warm the sample and provide constant stirring. The initiation of aggregation can be done by multiple types of […] agents not limited to thrombin, ADP, collagen and any agent known to stimulate platelet aggregation. […] The instrument begins the assay by first recording the light transmission previous to stimulation for 2 minutes. The stimulant of interest is then introduced by the technician and the change in light transmission is recorded over time. The increase in light transmission corresponds to increase in platelet aggregation.
# Platelet rich plasma was taken from subject on 800 mg ibuprofen.
# platelet rich plasma [2] = assay: T-TAS AR chip (collagen and tissue factor) occlusion under shear, platelet rich plasma; format: cell-based, human
# platelets = conditions: cited from earlier work
# [3] = test system: platelets (platelet rich plasma); assay: Transmission light aggregometry, collagen-induced platelet aggregation in PRP; format: cell-based, human
# Procedure: The aggregation of platelets (in platelet rich plasma) was evaluated using transmission light aggregrometry. […] (FIG. 8).
# as §1
# (§2) Plasma samples with platelet or thrombosomes or combination of both are loaded into cuvettes and placed into the aggregometry chambers. The chambers warm the sample and provide constant stirring. The initiation of aggregation can be done by multiple types of […] agents not limited to thrombin, ADP, collagen and any agent known to stimulate platelet aggregation. The samples can also have been taken as ex-vivo, or in-vitro supplemented with inhibitors. The instrument begins the assay by first recording the light transmission previous to stimulation for 2 minutes. The stimulant of interest is then introduced by the technician and the change in light transmission is recorded over time. The increase in light transmission corresponds to increase in platelet aggregation.
# whole blood [4] = assay: T-TAS PL chip (collagen only) thrombus formation, whole blood; format: cell-based, human; conditions: whole blood with 100 and 500 μM aspirin; FIG. 17
# From the text: (§3) In the Total Thrombus-formation Analysis System (T-TAS®, FUJIMORI KOGYO CO., LTD), the sample is forced through collagen-coated microchannels using mineral oil. Changes in pressure are used to assess thrombus formation. The Occlusion Start Time is time it takes to reach 10 kPa, and the Occlusion Time=time it takes to each Δ80 kPa using an AR chip (e.g., Zacros Item No, TC0101). According to the manufacturer, an AR chip can be used for analyzing the formation of a mixed white thrombus consisting chiefly of fibrin and activated platelets. It has a flow path (300 μm wide by 50 μm high) coated with collagen and tissue factors and can be used to analyze the clotting function and platelet function. In comparison, a PL chip can be used for analyzing the formation of a platelet thrombus consisting chiefly of activated platelets. A PL chip has a flow path coated with collagen only and can be used to analyze the platelet function.
# as §1
# Evaluation by T-TAS® Using a PL Chip
# PL chips are run similarly to AR chips, but this chip is only coated with collagen alone.
# NOD/SCID mice = assay: Tail-snip bleed model in clopidogrel-treated NOD/SCID mice; format: in vivo, mouse; conditions: ~3 times the clinical dose of clopidogrel for 5 days (untreated 9 minutes)
# Procedure: The mouse was treated with clopidogrel for 5 days. The mouse was anesthetized, the tail end was snipped off followed by thrombosomes being immediately administered. The time from tail snip to tail stop bleeding was recorded by visual inspection.
# NOD/SCID mice were treated with ˜ 3 times the clinical dose of clopidogrel for 5 days then assessed in the tail-snip bleed model. The bleed time (min) was extended to 17.8 minutes with clopidogrel treatment verses untreated at 9 minutes (data not shown).
# [5] = test system: platelets (platelet rich plasma); assay: Transmission light aggregometry, ADP-induced platelet aggregation in PRP; format: cell-based, human; conditions: cangrelor 0.5 μM-3.5 μM, 10 μM ADP, FIG. 1
# From the text: as §2
# platelet rich plasma [6] = assay: T-TAS AR chip (collagen and tissue factor) occlusion under shear, platelet rich plasma; format: cell-based, human; conditions: for area under the curve (AUC): FIG. 3; for time to occlusion: FIG. 4
# From the text: as §3
# The effect of cangrelor on platelet occlusion under shear was evaluated by T-TAS®.
# Evaluation by T-TAS® using an AR chip. AR chips are characterized by a single channel containing collagen and tissue factor; they can be used to analyze clotting and platelet function.
# whole blood [7] = assay: T-TAS AR chip occlusion under shear, whole blood; format: cell-based, human; conditions: whole blood with 6 μM eptifibatide (whole blood alone 8 minutes); FIG. 9
# From the text: as §3
# The effect of thrombosomes on shortening clotting times while in the presence of eptifibatide was also studied. The ability of thrombosomes to recover occlusion times was studied on the T-TAS® system. The T-TAS® system measures occlusion time under shear forces with collagen and thromboplastin stimulation. The whole blood profile of occlusion and AUC on the AR T-TAS® chip lengthened and decreased, respectively, with eptifibatide. […]
smiles,measurement,setting,value
CC(C)Cc1ccc(C(C)C(=O)O)cc1 (centres unmarked) [ibuprofen],aggregation in response to arachidonic acid,"[1]; PRP from subject on 800 mg ibuprofen, FIG. 31A",lack of aggregation
same,occlusion on T-TAS flow system,"platelet rich plasma [2]; PRP from subject on 800 mg ibuprofen, addition of ADP, FIG. 31B",abolished occlusion
same,occlusion on T-TAS flow system,"platelet rich plasma [2]; PRP from subject on 800 mg ibuprofen, no ADP, FIG. 31B",demonstrated occlusion
CCCSc1nc(N[C@@H]2C[C@H]2c2ccc(F)c(F)c2)c2nnn([C@@H]3C[C@H](OCCO)[C@@H](O)[C@H]3O)c2n1 [ticagrelor],time to return of platelet function,platelets; after the last dosage,approximately 72 hours
"CC(=O)Oc1ccccc1C(=O)O [aspirin, acetylsalicylic acid]",collagen-induced platelet aggregation,"[3]; collagen 10 ug/mL, aspirin 100-400 μM, FIG. 16",partially inhibited
same,arachidonic acid-induced platelet aggregation,"[1]; AA 500 ug/mL, aspirin 100-400 μM, PRP, FIG. 16",completely inhibited
same,platelet binding and aggregation on collagen under shear (PL chip),whole blood [4],largely limited
same,occlusion on T-TAS flow system,"platelet rich plasma [2]; PRP taken from a subject on 81 mg/day aspirin, FIGS. 29A, 29B",failed to occlude
CCCCS(=O)(=O)N[C@@H](Cc1ccc(OCCCCC2CCNCC2)cc1)C(=O)O [tirofiban],occlusion time,"platelet rich plasma [2]; PRP treated with 100 ng/mL tirofiban (from 18.43), FIGS. 26A, 26B",no occlusion
COC(=O)[C@H](c1ccccc1Cl)N1CCc2sccc2C1 [clopidogrel],bleed time,NOD/SCID mice,17.8 min
same,time to return of platelet function,platelets; after stopping infusion,approximately 1 hour
CSCCNc1nc(SCCC(F)(F)F)nc2c1ncn2[C@@H]1O[C@H](COP(=O)(O)OP(=O)(O)C(Cl)(Cl)P(=O)(O)O)[C@@H](O)[C@H]1O [cangrelor],ADP-induced platelet aggregation (integrated aggregation curve),[5],complete inhibition
same,occlusion time,"platelet rich plasma [6]; PRP treated with 100 ng/mL cangrelor and ADP (from 19), FIGS. 25A, 25B",26 min
same,platelet adhesion and occlusion on AR chip,"platelet rich plasma [6]; cangrelor 1 μM combined with ADP 10 μM, PRP, FIG. 2",essentially eliminated
same,platelet occlusion on AR chip,"platelet rich plasma [6]; cangrelor alone 1 μM, PRP, FIG. 2",did not exhibit inhibition on occlusion
same,area under the curve (AUC),"platelet rich plasma [6]; cangrelor alone, PRP",little effect on AUC value
same,time to occlusion,"platelet rich plasma [6]; cangrelor alone, PRP",little effect on occlusion times
same,area under the curve (AUC),"platelet rich plasma [6]; cangrelor combined with ADP stimulation, PRP",dropped close to zero
same,time to occlusion,"platelet rich plasma [6]; cangrelor plus ADP stimulation, PRP",inhibited occlusion essentially completely
N=C(N)NCCCC[C@@H]1NC(=O)CCSSC[C@@H](C(N)=O)NC(=O)[C@@H]2CCCN2C(=O)[C@H](Cc2c[nH]c3ccccc23)NC(=O)[C@H](CC(=O)O)NC(=O)CNC1=O [eptifibatide] ([Mpa][hArg]GDWPC-NH2; disulfide 1-7),collagen-induced platelet aggregation,"[3]; collagen 10 μg/mL, all eptifibatide concentrations tested, FIG. 8",completely inhibited
same,occlusion time,whole blood [7],16 min
same,occlusion time,"platelet rich plasma [2]; PRP treated with 9 μM eptifibatide (from 18.43), FIGS. 27A, 27B",over 30 minutes
same,time for bleeding time to return to normal after drug stoppage,platelets; after drug stoppage,≤ 1 h
